# Test results from patent US7851474B2, “Dipiperazinyl ketones and related analogues” (Neurogen Corporation, priority 2005, dated 2010).
# pKi: −log10 of the molar value.
# Molecular target: T1, chimeric human H3 receptor (Homo sapiens, UniProt Q9Y5N1, E19D)
# T1 construct: made in house; host or cells: Sf9 insect cells (baculovirus infection); P2 membrane preparation
# Experiment: Chimeric human H3 receptor GTP binding assay (agonist-stimulated GTP-gamma35S binding, Example 7)
# Format: biochemical
# Settings: not given
# Procedure, shortened: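 IC50 values come from non-linear regression of dose-response curves of filter-bound GTP-gamma^35S, counted by scintillation. Membranes were from infected Sf9 cells carrying receptor plus G-protein subunits, 35 μg/tube, with 10 μM GDP present.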
# T1 sequence (Q9Y5N1 with tags, fused parts or gaps E19D): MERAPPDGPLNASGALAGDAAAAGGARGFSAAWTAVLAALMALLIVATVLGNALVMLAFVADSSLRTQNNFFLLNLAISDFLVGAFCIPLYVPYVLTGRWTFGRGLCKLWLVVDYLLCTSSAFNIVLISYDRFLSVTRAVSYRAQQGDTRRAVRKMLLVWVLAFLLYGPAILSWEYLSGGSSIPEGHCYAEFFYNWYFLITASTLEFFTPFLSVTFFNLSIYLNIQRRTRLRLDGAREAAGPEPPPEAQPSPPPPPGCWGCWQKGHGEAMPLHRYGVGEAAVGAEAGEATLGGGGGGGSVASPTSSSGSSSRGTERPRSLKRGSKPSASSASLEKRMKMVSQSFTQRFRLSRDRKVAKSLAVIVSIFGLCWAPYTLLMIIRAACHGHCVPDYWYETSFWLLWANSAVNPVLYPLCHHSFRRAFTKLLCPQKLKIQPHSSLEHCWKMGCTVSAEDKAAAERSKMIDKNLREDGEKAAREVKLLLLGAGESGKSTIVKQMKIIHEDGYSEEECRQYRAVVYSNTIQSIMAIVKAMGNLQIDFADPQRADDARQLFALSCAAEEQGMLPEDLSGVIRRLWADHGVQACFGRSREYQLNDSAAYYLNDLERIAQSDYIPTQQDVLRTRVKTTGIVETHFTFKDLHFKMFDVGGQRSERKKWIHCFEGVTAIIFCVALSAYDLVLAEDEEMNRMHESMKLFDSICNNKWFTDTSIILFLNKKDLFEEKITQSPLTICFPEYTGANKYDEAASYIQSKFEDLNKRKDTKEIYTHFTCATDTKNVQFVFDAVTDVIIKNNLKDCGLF
row,SMILES,pKi
1,"O=C(CN1CCN(c2ccc3c(c2)OCO3)CC1)N1CCN(C2CCCC2)CC1 [Compound 257, 1-(1,3-benzodioxol-5-yl)-4-[2-(4-cyclopentylpiperazin-1-yl)-2-oxoethyl]piperazine]",> 6.00
2,"CCC(C)N1CCN(C(=O)CN2CCN(c3ccccc3F)CC2)CC1 (stereo not shown) [Compound 867, 1-sec-butyl-4-{[4-(2-fluorophenyl)piperazin-1-yl]acetyl}piperazine]",> 6.00
3,"CCN1CCN(C(=O)CN2CCN(c3ccc(C(F)(F)F)cc3)CC2)CC1 [Compound 842, 1-ethyl-4-({4-[4-(trifluoromethyl)phenyl]piperazin-1-yl}acetyl)piperazine]",> 6.00

# Same assay, conditions: "*" in Ki of Table II; assay of Example 7; read-out: Ki
row,pKi,SMILES
1,> 6.00,"CCC(C)N1CCN(C(=O)CN2CCC(N3CCC(C)CC3)CC2)CC1 (stereo not shown) [Compound 448, 1′-[2-(4-sec-butylpiperazin-1-yl)-2-oxoethyl]-4-methyl-1,4-bipiperidine]"
2,> 6.00,"CC(=O)c1ccc(N2CCN(CC(=O)N3CCN(C4CCC4)CC3)CC2)c(C(F)(F)F)c1 [Compound 462, 1-[4-{4-[2-(4-cyclobutylpiperazin-1-yl)-2-oxoethyl]piperazin-1-yl}-3-(trifluoromethyl)phenyl] ethanone]"
3,> 6.00,"O=C(Cc1c(Cl)ccc(Cl)c1Cl)N1CCN(CC(=O)N2CCN(C3CCC3)CC2)CC1 [Compound 501, 1-cyclobutyl-4-({4-[(2,3,6-trichlorophenyl)acetyl]piperazin-1-yl}acetyl)piperazine]"

# Same assay, conditions: Table II "Ki", symbol "*": Ki in the assay of Example 7; read-out: Ki
row,pKi,SMILES
1,> 6.00,"O=C(CN1CCN(c2cnc(-c3ccccc3)cn2)CC1)N1CCN(C2CCC2)CC1 [Compound 918, 2-{4-[2-(4-cyclobutylpiperazin-1-yl)-2-oxoethyl]piperazin-1-yl}-5-phenylpyrazine]"
2,> 6.00,"Cc1ccc(F)c(-c2cnc(N3CCN(CC(=O)N4CCN(C5CCC5)CC4)CC3)cn2)c1 [Compound 921, 2-{4-[2-(4-cyclobutylpiperazin-1-yl)-2-oxoethyl]piperazin-1-yl}-5-(2-fluoro-5-methylphenyl)pyrazine]"
3,> 6.00,"Cc1ccc(-c2ccc(N3CCN(CC(=O)N4CCN(C5CCC5)CC4)CC3)cc2)cc1 [Compound 784, 1-cyclobutyl-4-{[4-(4′-methylbiphenyl-4-yl)piperazin-1-yl]acetyl}piperazine]"
4,> 6.00,"O=C(CN1CCN(c2ccc(Cl)c(Cl)c2)CC1)N1CCN(C2CCCCC2)CC1 [Compound 815, 1-cyclohexyl-4-{[4-(3,4-dichlorophenyl)piperazin-1-yl]acetyl}piperazine]"
5,> 6.00,"CCC(C)N1CCN(C(=O)CN2CCN(c3ccc([N+](=O)[O-])cc3)CC2)CC1 (stereo not shown) [Compound 883, 1-sec-butyl-4-{[4-(4-nitrophenyl)piperazin-1-yl]acetyl}piperazine]"
6,> 6.00,"O=C(CN1CCN(C(=O)C2CCCO2)CC1)N1CCN(C2CCCC2)CC1 (stereo not shown) [Compound 841, 1-cyclopentyl-4-{[4-(tetrahydrofuran-2-ylcarbonyl)piperazin-1-yl]acetyl}piperazine]"
7,> 6.00,"CCOc1cccc(-c2cnc(N3CCN(CC(=O)N4CCN(C5CCC5)CC4)CC3)cn2)c1 [Compound 935, 2-{4-[2-(4-cyclobutylpiperazin-1-yl)-2-oxoethyl]piperazin-1-yl}-5-(3-ethoxyphenyl)pyrazine]"
8,> 6.00,"COc1ccc(N2CCN(CC(=O)N3CCN(C4CCC4)CC3)CC2)cc1 [Compound 782, 1-cyclobutyl-4-{[4-(4-methoxyphenyl)piperazin-1-yl]acetyl}piperazine]"

# Same assay, conditions: Table II, "*" in Ki; assay of Example 7; read-out: Ki
row,pKi,SMILES
1,> 6.00,"COc1cc(F)c(-c2ccc(N3CCN(CC(=O)N4CCN(C5CCC5)CC4)CC3)cc2)cc1F [Compound 683, 1-cyclobutyl-4-{[4-(2′,5′-difluoro-4′-methoxybiphenyl-4-yl)piperazin-1-yl]acetyl}piperazine]"
2,> 6.00,"CS(=O)(=O)c1ccc(N2CCN(CC(=O)N3CCN(C4CCC4)CC3)CC2)c(F)c1 [Compound 581, 1-cyclobutyl-4-({4-[2-fluoro-4-(methylsulfonyl)phenyl]piperazin-1-yl}acetyl)piperazine]"
3,> 6.00,"O=C(CN1CCN(c2ccc(-c3cccc(F)c3)cc2)CC1)N1CCN(C2CCC2)CC1 [Compound 753, 1-cyclobutyl-4-{[4-(3′-fluorobiphenyl-4-yl)piperazin-1-yl]acetyl}piperazine]"
4,> 6.00,"COc1ccc(-c2cccc(N3CCN(CC(=O)N4CCN(C5CCC5)CC4)CC3)c2)cc1F [Compound 749, 1-cyclobutyl-4-{[4-(3′-fluoro-4′-methoxybiphenyl-3-yl)piperazin-1-yl]acetyl}piperazine]"

# Same assay, conditions: Table II; assay of Example 7; "*" in Ki; read-out: Ki
row,pKi,SMILES
1,> 6.00,"CCCNC(=O)c1ccc(N2CCN(CC(=O)N3CCN(C4CCC4)CC3)CC2)cc1 [Compound 1132, 4-{4-[2-(4-cyclobutylpiperazin-1-yl)-2-oxoethyl]piperazin-1-yl}-N-propylbenzamide]"
2,> 6.00,"COc1ccc(OC)c(-c2cnc(N3CCN(CC(=O)N4CCN(C5CCC5)CC4)CC3)cn2)c1 [Compound 953, 2-{4-[2-(4-cyclobutylpiperazin-1-yl)-2-oxoethyl]piperazin-1-yl}-5-(2,5-dimethoxyphenyl) pyrazine]"
3,> 6.00,"O=C(CN1CCN(c2cnc(-c3ccc(F)c(F)c3)cn2)CC1)N1CCN(C2CCC2)CC1 [Compound 962, 2-{4-[2-(4-cyclobutylpiperazin-1-yl)-2-oxoethyl]piperazin-1-yl}-5-(3,4-difluorophenyl)pyrazine]"
4,> 6.00,"O=C(CN1CCN(c2cnc(-c3cccc4c3oc3ccccc34)cn2)CC1)N1CCN(C2CCC2)CC1 [Compound 956, 2-{4-[2-(4-cyclobutylpiperazin-1-yl)-2-oxoethyl]piperazin-1-yl}-5-dibenzo[b,d]furan-4-ylpyrazine]"
5,> 6.00,"COc1ccc(-c2ccc(N3CCN(CC(=O)N4CCN(C5CCC5)CC4)CC3)nn2)c(C)c1 [Compound 1038, 3-{4-[2-(4-cyclobutylpiperazin-1-yl)-2-oxoethyl]piperazin-1-yl}-6-(4-methoxy-2-methylphenyl)pyridazine]"
6,> 6.00,"O=C(CN1CCC2(CC1)c1ccccc1C(=O)N2Cc1ccccc1)N1CCN(C2CCC2)CC1 [Compound 981, 2-benzyl-1′-[2-(4-cyclobutylpiperazin-1-yl)-2-oxoethyl]spiro[isoindole-1,4′-piperidin]-3(2H)-one]"

# Same assay, conditions: assay of Example 7; "*" in Ki of Table II; read-out: Ki
row,pKi,SMILES
1,> 6.00,"CCCC(C)NC(=O)c1ccc(N2CCN(CC(=O)N3CCN(C4CCC4)CC3)CC2)nc1 (stereo not shown) [Compound 1184, 6-{4-[2-(4-cyclobutylpiperazin-1-yl)-2-oxoethyl]piperazin-1-yl}-N-(1-methylbutyl)nicotinamide]"
2,> 6.00,"N#Cc1ccc(N2CCN(CC(=O)N3CCN(C4CCCC4)CC3)CC2)cc1 [Compound 1148, 4-{4-[2-(4-cyclopentylpiperazin-1-yl)-2-oxoethyl]piperazin-1-yl}benzonitrile]"
3,> 6.00,"O=C(NC1CCN(CC(=O)N2CCN(C3CCC3)CC2)CC1)c1ccccc1 [Compound 1225, N-{1-[2-(4-cyclobutylpiperazin-1-yl)-2-oxoethyl]piperidin-4-yl}benzamide]"
4,> 6.00,"CCOC(=O)c1cccc(-c2ccc(N3CCN(CC(=O)N4CCN(C5CCC5)CC4)CC3)nn2)c1 [Compound 1196, ethyl 3-(6-{4-(2-(4-cyclobutylpiperazin-1-yl)-2-oxoethyl]piperazin-1-yl}pyridazin-3-yl)benzoate]"
5,> 6.00,"O=C1CCc2cc(N3CCN(CC(=O)N4CCN(C5CCC5)CC4)CC3)ccc21 [Compound 1157, 5-{4-[2-(4-cyclobutylpiperazin-1-yl)-2-oxoethyl]piperazin-1-yl}indan-1-one]"
6,> 6.00,"CCOC(=O)c1ccc(-c2ccc(N3CCN(CC(=O)N4CCN(C5CCC5)CC4)CC3)nn2)cc1 [Compound 1198, ethyl 4-(6-{4-[2-(4-cyclobutylpiperazin-1-yl)-2-oxoethyl]piperazin-1-yl}pyridazin-3-yl)benzoate]"
7,> 6.00,"CCOc1cccc(C(=O)NC2CCN(CC(=O)N3CCN(C4CCC4)CC3)C2)c1 (stereo not shown) [Compound 1239, N-{1-[2-(4-cyclobutylpiperazin-1-yl)-2-oxoethyl]pyrrolidin-3-yl}-3-ethoxybenzamide]"
8,> 6.00,"COCCN(C(=O)c1ccc(N2CCN(CC(=O)N3CCN(C4CCC4)CC3)CC2)nc1)C(C)C [Compound 1172, 6-{4-[2-(4-cyclobutylpiperazin-1-yl)-2-oxoethyl]piperazin-1-yl}-N-isopropyl-N-(2-methoxyethyl)nicotinamide]"
9,> 6.00,"Cc1cc(C)cc(C(=O)NC2CCN(CC(=O)N3CCN(C4CCC4)CC3)CC2)c1 [Compound 1211, N-{1-[2-(4-cyclobutylpiperazin-1-yl)-2-oxoethyl]piperidin-4-yl}-3,5-dimethylbenzamide]"

# Same assay, conditions: assay of Example 7; symbol * in column headed Ki of Table II; read-out: Ki
row,pKi,SMILES
1,> 6.00,"O=C(CN1CCN(c2cccc(C(=O)N3CC[C@@H]4CCCC[C@@H]4C3)c2)CC1)N1CCN(C2CCC2)CC1 [Compound 254, (4aS,8aS)-2-(3-{4-[2-(4-cyclobutylpiperazin-1-yl)-2-oxoethyl]piperazin-1-yl}benzoyl) decahydroisoquinoline]"
2,> 6.00,O=C(CN1CCN(c2ccc(Cl)cc2)CC1)N1CCN(C2CCC2)CC1 [Compound 356]
3,> 6.00,"COc1cc(N2CCN(CC(=O)N3CCN(C4CCC4)CC3)CC2)ccc1C(C)=O [Compound 318, 1-(4-{4-[2-(4-cyclobutylpiperazin-1-yl)-2-oxoethyl]piperazin-1-yl}-2-methoxyphenyl)ethanone]"
4,> 6.00,"CC(Oc1ccccc1Cl)C(=O)N1CCN(CC(=O)N2CCN(C3CCC3)CC2)CC1 (stereo not shown) [Compound 417, 1-[2-(2-chlorophenoxy)propanoyl]-4-[2-(4-cyclobutylpiperazin-1-yl)-2-oxoethyl]piperazine]"
